{
  "source": "paper PMC3726058",
  "about": "(European journal of pharmacology, 2010)",
  "origin": "cited, not measured here",
  "key": {"σ1 over the σ2 subtype": {"test_system": "σ1 over the σ2 subtype", "conditions": "ref Bowen, 1993"}, "adrenergic α2": {"target": "adrenergic α2", "conditions": "read-out: Ki α2; ref Yous et al., 2005"}, "histamine H1": {"target": "histamine H1", "conditions": "read-out: Ki H1; ref Yous et al., 2005"}, "σ1 versus σ2": {"test_system": "σ1 versus σ2", "conditions": "rat brain membranes; ref Klouz et al., 2003; Matsuno et al., 1996"}},
  "data": [
    {"smiles": "CC(C)=CCN1CC[C@]2(C)c3cc(O)ccc3C[C@H]1[C@H]2C", "note": "[[^3H](+)-Pentazocine]", "values": [
      {"measurement": "preference for σ1 over σ2 subtype", "setting": "σ1 over the σ2 subtype", "value": "> 700", "unit": "fold"}
    ]},
    {"smiles": "CCCc1ccc2c(c1)sc(=O)n2CCN1CCCCCC1", "note": "[SN56, 3-(2-(azepan-1-yl)ethyl)-6-propylbenzo[d]thiazol-2(3H)-one]", "values": [
      {"measurement": "Ki", "setting": "adrenergic α2", "value": 205, "unit": "nM"},
      {"measurement": "Ki", "setting": "histamine H1", "value": 311, "unit": "nM"}
    ]},
    {"smiles": "COc1ccc(CCN2CCN(CCCc3ccccc3)CC2)cc1OC", "note": "[SA4503]", "values": [
      {"measurement": "affinity for σ1 versus σ2", "setting": "σ1 versus σ2", "value": "approximately 100 fold"}
    ]},
    {"smiles": "COc1ccc(CN2CCN(Cc3ccccc3)CC2)c(O)c1OC", "note": "[BHDP]", "values": [
      {"measurement": "affinity for σ1 versus σ2", "setting": "σ1 versus σ2", "value": "approximately 100 fold"}
    ]}
  ]
}
